Experimental data taken from ChEMBL document CHEMBL4825728, “Development of succinimide-based inhibitors for the mitochondrial rhomboid protease PARL” (Bioorg Med Chem Lett, 2021).
pIC50: −log10 of the molar value. The source made the active and inactive calls. No cut-off for these calls is given here.

Experiments:
[1] = biological target: T1, Presenilin-associated rhomboid-like protein, mitochondrial (Homo sapiens) (UniProt Q9H300); experiment: Inhibition of FLAG-tagged human PARL transfected in HEK293T cell membrane assessed as inhibition of FP-Rh labeling at 100 uM incubated for 24 hrs followed by cells washing and lysis prior to FP-Rh labeling by In situ based analysis; type: cell membranes
T1 sequence (whole entry): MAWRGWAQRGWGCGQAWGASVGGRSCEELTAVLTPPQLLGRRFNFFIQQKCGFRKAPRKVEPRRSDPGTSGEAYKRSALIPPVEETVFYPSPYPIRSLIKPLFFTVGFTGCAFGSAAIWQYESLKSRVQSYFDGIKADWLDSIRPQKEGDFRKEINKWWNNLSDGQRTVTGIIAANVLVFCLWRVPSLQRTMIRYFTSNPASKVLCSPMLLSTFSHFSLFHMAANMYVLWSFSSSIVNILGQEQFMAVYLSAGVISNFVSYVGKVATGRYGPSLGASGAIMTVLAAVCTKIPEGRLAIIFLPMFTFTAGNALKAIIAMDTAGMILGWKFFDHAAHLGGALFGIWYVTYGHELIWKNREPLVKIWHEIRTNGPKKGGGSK

[2] = Solubility of the compound in HEK-293T cell membrane transfected with FLAG-tagged human PARL; type: ADME, cell membranes
Rhomboid protease GlpG = biological target: T2, Rhomboid protease GlpG (Escherichia coli (strain K12), UniProt P09391); experiment: Inhibition of GlpG in Escherichia coli BL21 assessed as inhibition of FP-Rh labeling treated with compound for 30 mins prior to FP-Rh addition by competitive ABPP based analysis
T2 sequence (P09391 whole entry): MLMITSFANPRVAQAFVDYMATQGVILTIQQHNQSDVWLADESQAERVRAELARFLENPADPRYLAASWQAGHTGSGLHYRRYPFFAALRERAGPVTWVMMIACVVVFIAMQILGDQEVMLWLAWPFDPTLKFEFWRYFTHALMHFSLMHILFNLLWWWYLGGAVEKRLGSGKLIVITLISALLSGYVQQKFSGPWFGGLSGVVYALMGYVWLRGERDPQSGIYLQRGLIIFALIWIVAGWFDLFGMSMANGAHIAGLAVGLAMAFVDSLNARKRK

[3] = biological target: T3, Presenilin-associated rhomboid-like protein, mitochondrial (Homo sapiens, UniProt Q9H300); experiment: Inhibition of human PARL transfected in HEK293T cell membrane assessed as inhibition of FP-Rh labeling treated with compound for 30 mins prior to FP-Rh addition by competitive ABPP based analysis; type: cell membranes
T3 sequence (Q9H300 whole entry): T1 sequence (whole entry)

[4] = biological target: T1, Presenilin-associated rhomboid-like protein, mitochondrial (Homo sapiens); experiment: Reversible inhibition of FLAG-tagged human PARL transfected in HEK293T cell membrane assessed as FP-Rh labeling at 200 uM treated with compound followed by gel filtration and later incubated for 4 hrs prior to FP-Rh labeling by competitive ABPP based analysis; type: cell membranes; set-up: Activity: scale not given: the % may be the effect or the level left
[5] = biological target: T1, Presenilin-associated rhomboid-like protein, mitochondrial (Homo sapiens); experiment: Inhibition of FLAG-tagged human PARL transfected in HEK293T cell membrane assessed as inhibition of FP-Rh labeling at 200 uM treated with compound prior to FP-Rh addition by competitive ABPP based analysis; type: cell membranes
[6] = biological target: T4, Rhomboid protease GlpG (Escherichia coli (strain K12)) (UniProt P09391); experiment: Inhibition of GlpG in Escherichia coli BL21 assessed as inhibition of FP-Rh labeling at 200 uM treated with compound prior to FP-Rh addition by competitive ABPP based analysis
T4 sequence (whole entry): T2 sequence (P09391 whole entry)

[7] = biological target: T1, Presenilin-associated rhomboid-like protein, mitochondrial (Homo sapiens); experiment: Inhibition of FLAG-tagged human PARL transfected in HEK293T cell membrane assessed as inhibition of FP-Rh labeling at 100 uM incubated for 8 hrs followed by cells washing and lysis prior to FP-Rh labeling by In situ based analysis; type: cell membranes
[8] = biological target: T1, Presenilin-associated rhomboid-like protein, mitochondrial (Homo sapiens); experiment: Reversible inhibition of FLAG-tagged human PARL transfected in HEK293T cell membrane assessed as FP-Rh labeling at 200 uM treated with compound followed by gel filtration and later incubated for 4 hrs prior to FP-Rh labeling by western blot analysis; type: cell membranes

For `O=C1CCC(=O)N1S(=O)(=O)c1ccccc1`, the inhibition [1] was “inactive”, the solubility [2] was “Soluble” and the pIC50 (Rhomboid protease GlpG) was under 3.00. The pIC50 [3] was 5.37 and the inhibition [4] was “Active”.

In the case of `NCCc1ccc(S(=O)(=O)F)cc1`, the inhibition [5] was “inactive” and the inhibition [6] was “inactive”.

For `CS(=O)(=O)ON1C(=O)c2ccccc2C1=O`, the solubility [2] was “Soluble”.

In the case of `CC(C)S(=O)(=O)ON1C(=O)c2ccccc2C1=O`, the solubility [2] was “Soluble”.

For `CS(=O)(=O)N1C(=O)c2ccccc2C1=O`, the solubility [2] was “Soluble”.

For `O=c1oc(Cl)c(Cl)c2ccccc12`, the inhibition [5] was “Active” and the inhibition [6] was “Active”.

With `O=C1c2ccccc2C(=O)N1S(=O)(=O)c1ccccc1` the solubility [2] was “Soluble”.

With `COc1ccc(S(=O)(=O)N2C(=O)c3ccccc3C2=O)cc1` the solubility [2] was “Soluble”.

With `CC(C)S(=O)(=O)ON1C(=O)CCC1=O` the solubility [2] was “Soluble”.

For `O=C1c2ccccc2C(=O)N1S(=O)(=O)c1ccc2ccccc2c1`, the solubility [2] was “Soluble”.

With `O=C1CCC(=O)N1OS(=O)(=O)c1ccc(-c2ccccc2)cc1` the solubility [2] was “Soluble”, the pIC50 (Rhomboid protease GlpG) was 4.59 and the pIC50 [3] was 5.72.

For `COc1ccc(S(=O)(=O)N2C(=O)CCC2=O)cc1`, the solubility [2] was “Soluble”.

In the case of `CC(C)S(=O)(=O)N1C(=O)c2ccccc2C1=O`, the solubility [2] was “Soluble”.

With `O=C1CCC(=O)N1S(=O)(=O)c1ccc([N+](=O)[O-])cc1` the inhibition [7] was “Active”, the inhibition [1] was “inactive” and the solubility [2] was “Soluble”. It also gave a pIC50 (Rhomboid protease GlpG) of 3.51 and a pIC50 [3] of 6.05.

For `O=C1CCC(=O)N1S(=O)(=O)c1ccc(-c2ccccc2)cc1`, the solubility [2] was “Soluble”, the pIC50 (Rhomboid protease GlpG) was 4.17 and the pIC50 [3] was 6.15.

With `O=C1CCC(=O)N1OS(=O)(=O)c1ccccc1` the inhibition [7] was over 50%, the inhibition [1] was “inactive” and the solubility [2] was “Soluble”. The pIC50 (Rhomboid protease GlpG) was 3.92, the inhibition [8] was “Active” and the pIC50 [3] was 4.70. For the same compound, the inhibition [4] was “Active”.

For `COc1ccc(S(=O)(=O)ON2C(=O)c3ccccc3C2=O)cc1`, the solubility [2] was “Soluble”.

In the case of `O=C1c2ccccc2C(=O)N1OS(=O)(=O)c1ccc(-c2ccccc2)cc1`, the solubility [2] was “Soluble”.

For `O=C(OCN1C(=O)c2ccccc2S1(=O)=O)c1ccccc1Cl`, the inhibition [7] was over 50%, the inhibition [5] was 100% and the inhibition [1] was “inactive”. For the same compound, the pIC50 (Rhomboid protease GlpG) was 5.55, the pIC50 [3] was 5.06 and the Activity [4] was 20%. It also gave an inhibition [6] of 100%.

With `O=C1CCC(=O)N1OS(=O)(=O)c1ccc2ccccc2c1` the solubility [2] was “Soluble”.

For `Cc1ccc(S(=O)(=O)N[C@@H](Cc2ccccc2)C(=O)CCl)cc1`, the inhibition [5] was “inactive” and the inhibition [6] was “inactive”.

For `O=C1CCC(=O)N1S(=O)(=O)c1ccc2ccccc2c1`, the solubility [2] was “Soluble”.

For `CC(C)S(=O)(=O)N1C(=O)CCC1=O`, the solubility [2] was “Soluble”.

In the case of `O=C1c2ccccc2C(=O)N1OS(=O)(=O)c1ccc([N+](=O)[O-])cc1`, the solubility [2] was “Soluble”.

With `O=C1CCC(=O)N1OS(=O)(=O)c1ccc([N+](=O)[O-])cc1` the solubility [2] was “Soluble”.

With `O=C1c2ccccc2C(=O)N1S(=O)(=O)c1ccc([N+](=O)[O-])cc1` the solubility [2] was “Soluble”.

For `O=C1c2ccccc2C(=O)N1OS(=O)(=O)c1ccc2ccccc2c1`, the solubility [2] was “Soluble”.

With `O=C1c2ccccc2C(=O)N1OS(=O)(=O)c1ccccc1` the solubility [2] was “Soluble”.

For `CS(=O)(=O)ON1C(=O)CCC1=O`, the solubility [2] was “Soluble”.

In the case of `O=S(=O)(F)Cc1ccccc1`, the inhibition [5] was “inactive” and the inhibition [6] was “inactive”.

In the case of `CS(=O)(=O)N1C(=O)CCC1=O`, the solubility [2] was “Soluble”.

With `COc1ccc(S(=O)(=O)ON2C(=O)CCC2=O)cc1` the solubility [2] was “Soluble”.

With `O=C1c2ccccc2C(=O)N1S(=O)(=O)c1ccc(-c2ccccc2)cc1` the solubility [2] was “Soluble”.
